Drawing on patent US12029739B2, “SHP2 inhibitor and use thereof” (KANAPH THERAPEUTICS INC., priority 2021, dated 2024), this text covers IC50 for 24 compounds.

Where two headings read alike, the source gives them in different places.

For assay [1], the target named is T1, SHP2 (full length) (Homo sapiens, UniProt Q06124).
T1 construct: SHP2 (full length, diluted to 100 pM final concentration in reaction buffer, BPS bioscience, US); purchased BPS bioscience, US
T1 sequence (Q06124 1-593): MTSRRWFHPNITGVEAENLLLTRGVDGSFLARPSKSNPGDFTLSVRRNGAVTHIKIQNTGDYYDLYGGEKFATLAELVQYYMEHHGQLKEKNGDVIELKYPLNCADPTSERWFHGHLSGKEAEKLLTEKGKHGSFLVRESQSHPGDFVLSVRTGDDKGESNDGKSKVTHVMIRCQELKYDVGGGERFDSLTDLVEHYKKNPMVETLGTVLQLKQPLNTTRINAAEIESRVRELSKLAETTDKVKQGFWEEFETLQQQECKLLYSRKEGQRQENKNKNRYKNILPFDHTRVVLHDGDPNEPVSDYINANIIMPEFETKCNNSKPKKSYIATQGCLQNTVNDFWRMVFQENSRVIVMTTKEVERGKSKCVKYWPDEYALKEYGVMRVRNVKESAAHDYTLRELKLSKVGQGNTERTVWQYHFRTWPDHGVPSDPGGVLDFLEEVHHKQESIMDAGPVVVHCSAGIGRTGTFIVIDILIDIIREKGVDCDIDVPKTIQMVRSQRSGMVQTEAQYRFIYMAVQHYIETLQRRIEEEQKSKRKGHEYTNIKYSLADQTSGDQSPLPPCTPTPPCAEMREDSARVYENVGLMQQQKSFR
Briefly: Phosphatase assay (PTPase assay) with DiFMUP substrate. The format is biochemical. The note with it: SHP2 activated with SHP2 activating peptide, DiFMUP 80 μM, 2 hours, fluorescence.

Assay [2] deals with phospho-ERK in MIA PaCa2 or H358 cells. The assay can be described thus: Phospho-ERK assay (AlphaLisa). Format: cell-based. For orientation: Bead proximity is the source of the signal in Alpha formats.
[3] abbreviates: 1.5 h, MIA PaCa2 or H358 cells, compound incubated 1.5 hours, read-out: IC50 (p-ERK).

Usually IC50 stands for the concentration needed to halve the response being measured. On to `CC1(CN)CCN(c2cnc(Sc3ccc4ncn(Cc5ccc(S(=O)(=O)F)cc5)c(=O)c4c3Cl)cn2)CC1` [Example 17, 4-((6-((5-(4-(aminomethyl)-4-methylpiperidin-1-yl)pyrazin-2-yl)thio)-5-chloro-4-oxoquinazolin-3(4H)-yl)methyl)benzenesulfonyl fluoride], for which the IC50 in assay [1] (IC50 (PTPase aS say, nM)) is 3 to 100 nM; in assay [2] (1.5 h, read-out: IC50 (p-ERK, nM)), 45 to 1500 nM.

Consider `Cn1c(N2CCN(CCN)CC2)nc(N)c(Sc2ccnc(Cl)c2Cl)c1=O` [Example 193, 6-amino-2-(4-(2-aminoethyl)piperazin-1-yl)-5-((2,3-dichloropyridin-4-yl)thio)-3-methylpyrimidin-4(3H)-one], for which the IC50 in assay [1] (read-out: IC50 (PTPase aS say)) is more than 100 nM; in assay [2] (setting [3]), more than 1500 nM.

On to `CC(C)OCCn1cnc2ccc(Sc3cnc(N4CCC5(CC4)CO[C@@H](C)[C@H]5N)cn3)c(Cl)c2c1=O` [Example 116, 6-((5-(3S,4S)-4-amino-3-methyl-2-oxa-8-azaspiro[4,5]decan-8-yl)pyrazin-2-yl)thio)-5-chloro-(3-(2-isopropoxyethyl)quinazolin-4(3H)-one], for which the IC50 in assay [1] (read-out: IC50 (PTPase aS say)) is less than 3 nM; in assay [2] (setting [3]), less than 45 nM.

Take `C[C@@H]1OCC2(CCN(c3cnc(Sc4ccc5ncn(CC6(F)CCOCC6)c(=O)c5c4Cl)cn3)CC2)[C@@H]1N` [Example 79, 6-((5-((3S,4S)-4-amino-3-methyl-2-oxa-8-azaspiro[4.5]decan-8-yl)pyrazin-2-yl)thio)-5-chloro-3-((4-fluorotetrahydro-2H-pyran-4-yl)methyl)quinazolin-4(3H)-one]: the half-inhibitory concentration (IC50) is less than 3 nM in assay [1] (read-out: IC50 (PTPase aS say)) and less than 45 nM in assay [2] (setting [3]).

On to `C[C@@H]1OCC2(CCN(c3cnc(Sc4ccc5ncn(CCN(C)C)c(=O)c5c4Cl)cn3)CC2)[C@@H]1N` [Example 67, 6-((5-((3S,4S)-4-amino-3-methyl-2-oxa-8-azaspiro[4.5]decan-8-yl)pyrazin-2-yl)thio)-5-chloro-3-(2-(dimethylamino)ethyl)quinazolin-4(3H)-one], for which the figures for the concentration for half-maximal inhibition (IC50) in assay [1] (read-out: IC50 (PTPase aS say)) and in assay [2] (setting [3]) were 3 to 100 nM and 45 to 1500 nM, respectively.

For the compound `COC(=O)c1cccc(Sc2cnc(N3CCC(C)(N)CC3)cn2)c1Cl` [Example 1, methyl 3-((5-(4-amino-4-methylpiperidin-1-yl)pyrazin-2-yl)thio)-2-chlorobenzoate], the concentration for half-maximal inhibition (IC50) in assay [1] (read-out: IC50 (PTPase aS say)) fell in the range of 3 to 100 nM; in assay [2] (setting [3]), 45 to 1500 nM.

On to `COCCn1cnc2ccc(Sc3ncc(N4CCC5(CC4)Cc4scnc4[C@H]5N)nc3N)c(Cl)c2c1=O` [Example 167, (S)-6-((3-amino-5-(4-amino-4,6-dihydrospiro[cyclopenta[d]thiazole-5,4′-piperidin]-1′-yl)pyrazin-2-yl)thio)-5-chloro-3-(2-methoxyethyl)quinazolin-4(3H)-one], for which the concentration for half-maximal inhibition (IC50) in assay [1] (read-out: IC50 (PTPase aS say)) was less than 3 nM; in assay [2] (setting [3]) it was 45 to 1500 nM.

Regarding `Cn1c(N2CCCN(CCCN)CC2)nc(N)c(Sc2cccc(Cl)c2Cl)c1=O` [Example 201, 6-amino-2-(4-(3-aminopropyl)-1,4-diazepan-1-yl)-5-((2,3-dichlorophenyl)thio)-3-methylpyrimidin-4(3H)-one], the results for the 50% inhibitory concentration (IC50) in assay [1] (read-out: IC50 (PTPase aS say)) and in assay [2] (setting [3]) were more than 100 nM and more than 1500 nM, respectively.

For `C[C@@H]1OCC2(CCN(c3cnc(Sc4cccc(S(=O)(=O)NCc5ccccc5)c4Cl)cn3)CC2)[C@@H]1N` [Example 10, 3-((5-((3S,4S)-4-amino-3-methyl-2-oxa-8-azaspiro[4.5]decan-8-yl)pyrazin-2-yl)thio)-N-benzyl-2-chlorobenzenesulfonamide], the IC50 in assay [1] (read-out: IC50 (PTPase aS say)) was 3 to 100 nM; in assay [2] (setting [3]) it was less than 45 nM.

Consider `COCCn1cnc2ccc(Sc3ncc(N4CCC5(CC4)CO[C@@H](C)[C@H]5N)nc3N)c(Cl)c2c1=O` [Example 143, 6-((3-amino-5-((3S,4S)-4-amino-3-methyl-2-oxa-8-azaspiro[4.5]decan 8-yl)pyrazin-2-yl)thio)-5-chloro-3-(2-methoxyethyl)quinazolin-4(3H)-one], for which the IC50 in assay [1] (read-out: IC50 (PTPase aS say)) was less than 3 nM; in assay [2] (setting [3]), less than 45 nM.

For `CC1(N)CCN(c2cnc(Sc3ccc4ncn(-c5ccccc5)c(=O)c4c3Cl)cn2)CC1` [Example 28, 6-((5-(4-amino-4-methylpiperidin-1-yl)pyrazin-2-yl)thio)-5-chloro-3-phenylquinazolin-4(3H)-one], the IC50 in assay [1] (read-out: IC50 (PTPase aS say)) lay within 3 to 100 nM; in assay [2] (setting [3]) it was 45 to 1500 nM.

As for `CC(C)(O)Cn1cnc2ccc(Sc3ncc(N4CCC5(CC4)Cc4ncsc4[C@H]5N)nc3N)c(Cl)c2c1=O` [Example 166, (S)-6-((3-amino-5-(6-amino-4,6-dihydrospiro[cyclopenta[d]thiazole-5,4′-piperidin]-1′-yl)pyrazin-2-yl)thio)-5-chloro-3-(2-hydroxy-2-methylpropyl)quinazolin-4(3H)-one], the IC50 in assay [1] (read-out: IC50 (PTPase aS say)) was less than 3 nM; in assay [2] (setting [3]), less than 45 nM.

For the compound `N[C@@H]1c2cccnc2CC12CCN(c1cnc(Sc3ccc4ncn(CCCO)c(=O)c4c3Cl)cn1)CC2` [Example 109], the 50% inhibitory concentration (IC50) in assay [1] (read-out: IC50 (PTPase aS say)) is less than 3 nM; in assay [2] (setting [3]), less than 45 nM.

Consider `C[C@@H]1OCC2(CCN(c3cnc(Sc4ccc5ncn(CC(C)(C)F)c(=O)c5c4Cl)cn3)CC2)[C@@H]1N` [Example 139, 6-((5-((3S,4S)-4-amino-3-methyl-2-oxa-8-azaspiro[4.5]decan-8-yl)pyrazin-2-yl)thio)-5-chloro-3-(2-fluoro-2-methylpropyl)quinazolin-4(3H)-one], for which the figures for the 50% inhibitory concentration (IC50) in assay [1] (read-out: IC50 (PTPase aS say)) and in assay [2] (setting [3]) were 3 to 100 nM and 45 to 1500 nM, respectively.

In the case of `COc1cccc(Cc2nc3ccc(Sc4cnc(N5CCC6(CC5)CO[C@@H](C)[C@H]6N)cn4)c(Cl)c3[nH]2)c1` [Example 135], the values for the IC50 in assay [1] (read-out: IC50 (PTPase aS say)) and in assay [2] (setting [3]) were more than 100 nM and more than 1500 nM, respectively.

Turning to `C[C@@H]1OCC2(CCN(c3cnc(Sc4ccc5nc[nH]c(=O)c5c4Cl)cn3)CC2)[C@@H]1N` [Example 5, 6-((5-((3S,4S)-4-amino-3-methyl-2-oxa-8-azaspiro[4.5]decan-8-yl)pyrazin-2-yl)thio)-5-chloroquinazolin-4(3H)-one], the IC50 in assay [1] (read-out: IC50 (PTPase aS say)) was 3 to 100 nM; in assay [2] (setting [3]), 45 to 1500 nM.

`Cc1nc2ccc(Sc3cnc(N4CCC(C)(CN)CC4)cn3)c(Cl)c2c(=O)n1Cc1ccccc1` [Example 23, 6-((5-(4-(aminomethyl)-4-methylpiperidin-1-yl)pyrazin-2-yl)thio)-3-benzyl-5-chloro-2-methylquinazolin-4(3H)-one]: the figures for the IC50 in assay [1] (read-out: IC50 (PTPase aS say)) and in assay [2] (setting [3]) were 3 to 100 nM and 45 to 1500 nM, respectively.

With `C[C@@H]1OCC2(CCN(c3cnc(Sc4ccc5ncn(Cc6ccn(C)n6)c(=O)c5c4Cl)cn3)CC2)[C@@H]1N` [Example 53, 6-((5-((3S,4S)-4-amino-3-methyl-2-oxa-8-azaspiro[4.5]decan-8-yl)pyrazin-2-yl)thio)-5-chloro-3-((1-methyl-1H-pyrazol-3-yl)methyl)quinazolin-4(3H)-one], the IC50 in assay [1] (read-out: IC50 (PTPase aS say)) is 3 to 100 nM; in assay [2] (setting [3]), less than 45 nM.

For `C[C@@H]1OCC2(CCN(c3cnc(Sc4ccnc(C(=O)NCc5cccnc5)c4Cl)cn3)CC2)[C@@H]1N` [Example 87, 4-((5-((3S,4S)-4-amino-3-methyl-2-oxa-8-azaspiro[4.5]decan-8-yl)pyrazin-2-yl)thio)-3-chloro-N-(pyridin-3-ylmethyl)picolinamide], the half-maximal inhibitory concentration (IC50) fell in the range of 3 to 100 nM in assay [1] (read-out: IC50 (PTPase aS say)) and 45 to 1500 nM in assay [2] (setting [3]).

As for `C[C@@H]1OCC2(CCN(c3cnc(Sc4ccc5ncn(CCCN(C)C)c(=O)c5c4Cl)cn3)CC2)[C@@H]1N` [Example 68, 6-((5-((3S,4S)-4-amino-3-methyl-2-oxa-8-azaspiro[4.5]decan-8-yl)pyrazin-2-yl)thio)-5-chloro-3-(3-(dimethylamino)propyl)quinazolin-4(3H)-one], the figures for the IC50 in assay [1] (read-out: IC50 (PTPase aS say)) and in assay [2] (setting [3]) were 3 to 100 nM and 45 to 1500 nM, respectively.

With `C[C@@H]1OCC2(CCN(c3cnc(Sc4ccc5c(nc(OC6CCOC6)n5C)c4Cl)cn3)CC2)[C@@H]1N` (stereo partly drawn) [Example 130], the IC50 in assay [1] (read-out: IC50 (PTPase aS say)) is less than 3 nM; in assay [2] (setting [3]), less than 45 nM.

Consider `COCCn1cnc2ccc(Sc3cnc(N4CCC5(CC4)Cc4ncsc4C5N)cn3)c(Cl)c2c1=O` (stereo in doubt) [Example 145, 6-[5-[(6R)-6-aminospiro[4,6-dihydrocyclopenta[d]thiazole-5,4′-piperidin]-1′-yl]pyrazin-2-yl]sulfanyl-5-chloro-3-(2-methoxyethyl)quinazolin-4-one], for which the half-inhibitory concentration (IC50) in assay [1] (read-out: IC50 (PTPase aS say)) was 3 to 100 nM; in assay [2] (MIA PaCa2 or H358 cells, compound incubated 1.5 hours, read-out: IC50 (p-ERK)) it was 45 to 1500 nM.

As to `Cc1nc2ccc(Sc3cnc(N4CCC(C)(N)CC4)cn3)c(Cl)c2s1` [Example 24, 1-(5-((7-chloro-2-methylbenzo[d]thiazol-6-yl)thio)pyrazin-2-yl)-4-methylpiperidin-4-amine], the results for the IC50 in assay [1] (read-out: IC50 (PTPase aS say)) and in assay [2] (setting [3]) were 3 to 100 nM and more than 1500 nM, respectively.

`CC(c1ccccc1)n1cnc2ccc(Sc3cnc(N4CCC5(CC4)CO[C@@H](C)[C@H]5N)cn3)c(Cl)c2c1=O` (stereo partly drawn) [Example 32, 6-((5-((3S,4S)-4-amino-3-methyl-2-oxa-8-azaspiro[4.5]decan-8-yl)pyrazin-2-yl)thio)-5-chloro-3-(1-phenylethyl)quinazolin-4(3H)-one]: the figures for the IC50 in assay [1] (read-out: IC50 (PTPase aS say)) and in assay [2] (setting [3]) were less than 3 nM and 45 to 1500 nM, respectively.
